ChEMBL document CHEMBL6109072, “Discovery of highly potent dual GSPT1/BRD4 degraders with anti-AML activity” (Eur J Med Chem, 2025)
Activity calls are given as the source filed them. No cut-off for these calls is given here.

What was measured:
[1] = test system: MOLM-13; assay: Induction of cell cycle arrest in human MOLM-13 cells assessed as accumulation at G1 phase at 0.1 uM incubated for 6 to 12 hrs by PI staining based flow cytometry; type: functional; conditions: time 6-12 hrs
[2] = test system: MOLM-13; assay: Induction of apoptosis in human MOLM-13 cells assessed as late apoptotic cells at 0.1 uM incubated for 6 hrs by Annexin V-APC/7-AAD staining based flow cytometry (reference value: 0.01 %); type: functional
[3] = test system: MOLM-13; assay: Antiproliferative activity against human MOLM-13 cells assessed as cell viability at 0.1 uM incubated for 3 days by CCK8 assay relative to control; type: functional; conditions: MOLM-13, 72 h, time 3 day, read-out: Activity
[4] = test system: MOLM-13; assay: Antiproliferative activity against human MOLM-13 cells incubated for 3 days by CCK8 assay; type: functional, cell-based; conditions: MOLM-13, 72 h
[5] = Toxicity in IL2Rg-null NSG mouse xenografted with human MOLM-13 cells expressing GFP-Fluc assessed as drug tolerance at 2.5 mg/kg, ip bid treated for 18 days; type: organism-based; conditions: in vivo, 432 h, time 18 day
[6] = test system: MOLM-13; assay: Antitumor activity against human MOLM-13 cells expressing GFP-Fluc xenografted in IL2Rg-null NSG mouse assessed as reduction in leukemia burden at 2.5 mg/kg, ip bid treated for 21 days by bioluminescence imaging based analysis; type: functional, organism-based; conditions: time 21.0 day
[7] = test system: SU-DHL-1; assay: Antiproliferative activity against human SU-DHL-1 cells incubated for 3 days by CCK8 assay; type: functional, cell-based; conditions: SU-DHL-1, 72 h
[8] = test system: MOLM-13; assay: Induction of apoptosis in human MOLM-13 cells assessed as late apoptotic cells at 0.1 uM incubated for 12 hrs by Annexin V-APC/7-AAD staining based flow cytometry (reference value: 0.01 %); type: functional
[9] = target: T1, Protein cereblon/Bromodomain-containing protein 4 (Homo sapiens, UniProt O60885+Q96SW2); assay: PROTAC activity at CRBN/BRD4 in human MOLM-13 cells assessed as BRD4 degradation incubated for 24 hrs by Western blot analysis; type: cell-based
T1 sequence (Q96SW2 whole entry, looked up, other chains not shown): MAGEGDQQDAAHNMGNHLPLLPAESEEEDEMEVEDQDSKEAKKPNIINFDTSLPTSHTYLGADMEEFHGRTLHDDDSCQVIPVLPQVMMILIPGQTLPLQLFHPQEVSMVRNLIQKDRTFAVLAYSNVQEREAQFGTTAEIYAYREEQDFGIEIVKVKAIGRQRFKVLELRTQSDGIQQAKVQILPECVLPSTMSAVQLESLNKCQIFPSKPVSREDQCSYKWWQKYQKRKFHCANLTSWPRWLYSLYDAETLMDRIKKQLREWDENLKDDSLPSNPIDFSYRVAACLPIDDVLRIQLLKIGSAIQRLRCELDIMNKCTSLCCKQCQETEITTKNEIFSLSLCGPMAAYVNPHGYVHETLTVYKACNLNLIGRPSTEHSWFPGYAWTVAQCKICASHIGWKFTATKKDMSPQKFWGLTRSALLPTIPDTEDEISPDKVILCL

[10] = Cytotoxicity in human PBMC cells at 62.5 to 1000 nM; type: toxicity, cell-based; conditions: 1 µM, dose 62.5-1000 nM
[11] = test system: MOLM-13; assay: Induction of apoptosis in human MOLM-13 cells assessed as early apoptotic cells at 0.1 uM incubated for 6 hrs by Annexin V-APC/7-AAD staining based flow cytometry (reference value: 0.08 %); type: functional
[12] = test system: NB-4; assay: Antiproliferative activity against human NB4 cells incubated for 3 days by CCK8 assay; type: functional, cell-based; conditions: NB-4, 72 h
[13] = test system: MOLM-13; assay: Antitumor activity against human MOLM-13 cells expressing GFP-Fluc xenografted in IL2Rg-null NSG mouse assessed as reduction in GFP-positive leukemic cells in peripheral blood at 2.5 mg/kg, ip bid treated for 21 days by flow cytometry; type: functional, organism-based; conditions: time 21.0 day
[14] = Toxicity in IL2Rg-null NSG mouse xenografted with human MOLM-13 cells expressing GFP-Fluc assessed as body weight change at 2.5 mg/kg, ip bid treated for 18 days; type: organism-based; conditions: in vivo, 432 h, time 18 day
[15] = test system: Daudi; assay: Antiproliferative activity against human Daudi cells incubated for 3 days by CCK8 assay; type: functional, cell-based; conditions: 72 h
[16] = test system: MOLM-13; assay: Induction of apoptosis in human MOLM-13 cells assessed as necrotic cells at 0.1 uM incubated for 6 hrs by Annexin V-APC/7-AAD staining based flow cytometry (reference value: 2.79 %); type: functional
[17] = test system: MOLM-13; assay: Antitumor activity against human MOLM-13 cells expressing GFP-Fluc xenografted in IL2Rg-null NSG mouse assessed as reduction in spleen weight at 2.5 mg/kg, ip bid treated for 21 days; type: functional, organism-based; conditions: time 21.0 day
[18] = target: T1, Protein cereblon/Bromodomain-containing protein 4; assay: PROTAC activity at CRBN/BRD4 in human MOLM-13 cells assessed as BRD4 degradation at 1 uM incubated for 24 hrs by Western blot analysis; type: cell-based
[19] = test system: MOLM-13; assay: Antitumor activity against human MOLM-13 cells expressing GFP-Fluc xenografted in IL2Rg-null NSG mouse assessed as prolongation of median survival time at 2.5 mg/kg, ip bid treated for 21 days; type: functional, organism-based; conditions: time 21.0 day
[20] = test system: OCI-AML-3; assay: Antiproliferative activity against human OCI-AML-3 cells incubated for 3 days by CCK8 assay; type: functional, cell-based; conditions: Homo sapiens, OCI-AML-3, 72 h
[21] = test system: MOLM-13; assay: Antitumor activity against human MOLM-13 cells expressing GFP-Fluc xenografted in IL2Rg-null NSG mouse assessed as reduction in GFP-positive leukemic cells in bone marrow at 2.5 mg/kg, ip bid treated for 21 days by flow cytometry; type: functional, organism-based; conditions: time 21.0 day
[22] = test system: MOLM-13; assay: Induction of apoptosis in human MOLM-13 cells assessed as early apoptotic cells at 0.1 uM incubated for 24 hrs by Annexin V-APC/7-AAD staining based flow cytometry (reference value: 0.08 %); type: functional
[23] = target: T2, Protein cereblon/Eukaryotic peptide chain release factor GTP-binding subunit ERF3A (Homo sapiens, UniProt Q96SW2+P15170); assay: PROTAC activity at CRBN/GSPT1 in human MOLM-13 cells assessed as GSPT1 degradation at 100 nM incubated for 6 hrs by Western blot analysis; type: cell-based
Target sequence in this assay (P15170 whole entry, looked up): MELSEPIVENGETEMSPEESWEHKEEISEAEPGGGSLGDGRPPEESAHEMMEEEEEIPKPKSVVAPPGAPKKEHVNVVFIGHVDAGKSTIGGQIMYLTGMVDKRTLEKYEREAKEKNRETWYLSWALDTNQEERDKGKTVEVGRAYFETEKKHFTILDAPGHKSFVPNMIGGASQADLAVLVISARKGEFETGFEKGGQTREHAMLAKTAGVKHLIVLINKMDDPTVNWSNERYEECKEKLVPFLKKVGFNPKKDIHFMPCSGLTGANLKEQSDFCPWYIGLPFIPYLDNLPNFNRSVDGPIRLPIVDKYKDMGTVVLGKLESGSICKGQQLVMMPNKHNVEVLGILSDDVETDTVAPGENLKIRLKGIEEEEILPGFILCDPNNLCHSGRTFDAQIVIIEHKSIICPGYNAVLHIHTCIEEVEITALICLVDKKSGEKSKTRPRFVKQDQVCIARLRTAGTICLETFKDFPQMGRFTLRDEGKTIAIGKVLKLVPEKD
Target sequence in this assay (Q96SW2 whole entry, looked up): as the sequence (Q96SW2 whole entry, looked up, other chains not shown) above

[24] = test system: MOLM-13; assay: Induction of apoptosis in human MOLM-13 cells assessed as early apoptotic cells at 0.1 uM incubated for 12 hrs by Annexin V-APC/7-AAD staining based flow cytometry (reference value: 0.08 %); type: functional
[25] = test system: KARPAS-299; assay: Antiproliferative activity against human KARPAS-299 cells incubated for 3 days by CCK8 assay; type: functional, cell-based; conditions: Homo sapiens, KARPAS-299, 72 h
[26] = test system: MOLM-13; assay: Antitumor activity against human MOLM-13 cells expressing GFP-Fluc xenografted in IL2Rg-null NSG mouse assessed as reduction in GFP-positive leukemic cells in spleen at 2.5 mg/kg, ip bid treated for 21 days by flow cytometry; type: functional, organism-based; conditions: time 21.0 day
[27] = test system: Raji; assay: Antiproliferative activity against human Raji cells incubated for 3 days by CCK8 assay; type: functional, cell-based; conditions: 72 h
[28] = test system: MOLM-13; assay: Induction of apoptosis in human MOLM-13 cells assessed as late apoptotic cells at 0.1 uM incubated for 24 hrs by Annexin V-APC/7-AAD staining based flow cytometry (reference value: 0.01 %); type: functional
[29] = test system: HL-60; assay: Antiproliferative activity against human HL-60 cells incubated for 3 days by CCK8 assay; type: functional, cell-based; conditions: HL-60, 72 h
[30] = test system: MOLM-13; assay: Induction of apoptosis in human MOLM-13 cells assessed as viable cells at 0.1 uM incubated for 6 hrs by Annexin V-APC/7-AAD staining based flow cytometry (reference value: 97.12 %); type: functional; conditions: read-out: Activity
[31] = test system: THP-1; assay: Antiproliferative activity against human THP-1 cells incubated for 3 days by CCK8 assay; type: functional, cell-based; conditions: THP-1, 72 h
[32] = test system: MOLM-13; assay: Induction of apoptosis in human MOLM-13 cells assessed as viable cells at 0.1 uM incubated for 24 hrs by Annexin V-APC/7-AAD staining based flow cytometry (reference value: 97.12 %); type: functional; conditions: read-out: Activity
[33] = test system: MOLM-13; assay: Induction of apoptosis in human MOLM-13 cells assessed as viable cells at 0.1 uM incubated for 12 hrs by Annexin V-APC/7-AAD staining based flow cytometry (reference value: 97.12 %); type: functional; conditions: read-out: Activity
[34] = target: T2, Protein cereblon/Eukaryotic peptide chain release factor GTP-binding subunit ERF3A; assay: PROTAC activity at CRBN/GSPT1 in human MOLM-13 cells assessed as GSPT1 degradation incubated for 24 hrs by Western blot analysis; type: cell-based
Target sequence in this assay (Q96SW2 whole entry): as the sequence (Q96SW2 whole entry, looked up, other chains not shown) above
Target sequence in this assay (P15170 whole entry): as the sequence (P15170 whole entry, looked up) above

[35] = test system: MOLM-13; assay: Induction of apoptosis in human MOLM-13 cells assessed as necrotic cells at 0.1 uM incubated for 24 hrs by Annexin V-APC/7-AAD staining based flow cytometry (reference value: 2.79 %); type: functional
[36] = test system: MOLM-13; assay: Induction of apoptosis in human MOLM-13 cells assessed as necrotic cells at 0.1 uM incubated for 12 hrs by Annexin V-APC/7-AAD staining based flow cytometry (reference value: 2.79 %); type: functional
[37] = target: T1, Protein cereblon/Bromodomain-containing protein 4; assay: PROTAC activity at CRBN/BRD4 in human MOLM-13 cells assessed as BRD4 degradation at 100 nM incubated for 6 hrs by Western blot analysis; type: cell-based

With `Cc1sc2c(c1C)C(c1ccc(Cl)cc1)=N[C@@H](CC(=O)N1CCN(CC3CCN(c4ccc5c(c4)C(=O)N(C4CCC(=O)NC4=O)C5=O)CC3)CC1)c1nnc(C)n1-2` (some centres not stated) the Activity [1] was “Active”, the Activity [2] was 0.3% and the viability at 0.1 µM [3] was 7.02%. The IC50 [4] was 8.55 nM, the Activity [5] was “Non-toxic” and the Activity [6] was “Active”. For the same molecule, the IC50 [7] was 6.29 nM, the Activity [8] was 2.01% and the DC50 [9] was 0.48 nM. For the same molecule, the Activity [10] was “Non-toxic”, the Activity [11] was 20.64% and the IC50 [12] was 2.69 nM. The Activity [13] was “Active”, the Activity [14] was “Non-toxic” and the IC50 [15] was 8.92 nM. The Activity [16] was 0.36%, the Activity [17] was “Active; Compound Activity Consistent With Decreased Leukemic Infiltration” and the Activity [18] was “Active”. The Activity [19] was “Active”, the IC50 [20] was 14.4 nM and the Activity [21] was “Active”. For the same molecule, the Activity [22] was 67.5%, the Activity [23] was “Active” and the Activity [24] was 39.9%. For the same molecule, the IC50 [25] was 25.5 nM, the Activity [26] was “Active” and the IC50 [27] was 10.1 nM. The Activity [28] was 21.1%, the IC50 [29] was 8.19 nM and the viability at 0.1 µM [30] was 78.7%. It also gave an IC50 [31] of 18 nM, a viability at 0.1 µM [32] of 10.2% and a viability at 0.1 µM [33] of 57.8%. The DC50 [34] was 5.25 nM, the Activity [35] was 1.18% and the Activity [36] was 0.26%. The Activity [37] was “Active”.
